According to patent US7414128B2, “Crystalline R-guanidines, Arginine or (L)-Arginine (2S)-2-Ethoxy-3-{4-[2-(10H -phenoxazin-10-yl)ethoxy]phenyl}propanoate” (Dr. Reddy's Laboratories, Limited, priority 2002, dated 2008):
Structures can show the parent of a compound that is named as a salt.

Key:
[1] = aqueous solubility; type: physicochemical; conditions: salt compared with the free acid
[2] = bioavailability; conditions: attributed to the higher aqueous solubility
[3] = hygroscopicity at high relative humidity; type: physicochemical; conditions: even at relative humidities as high as 90 RH
[4] = stability of the salt; type: physicochemical

| solubility in aqueous media [1] | bioavailability [2] | hygroscopicity [3] | stability [4] | Compound |
| --- | --- | --- | --- | --- |
| sparingly soluble | – | – | – | CCO[C@@H](Cc1ccc(OCCN2c3ccccc3Oc3ccccc32)cc1)C(=O)O [(2S)-2-Ethoxy-3-{4-[2-(10H-phenoxazin-10-yl)ethoxy]phenyl}pr] [(2S)-2-Ethoxy-3-{4-[2-(10H-phenoxazin-10-yl)ethoxy]phenyl}propanoic acid] |
| significantly higher aqueous solubility | good bioavailability | not hygroscopic | highly stable | CCO[C@@H](Cc1ccc(OCCN2c3ccccc3Oc3ccccc32)cc1)C(=O)O [(L)-Arginine salt, (L)-Arginine (2S)-2-Ethoxy-3-{4-[2-(10H-phenoxazin-10-yl)ethoxy]phenyl}propanoate] |
